From ChEMBL document CHEMBL1201862, “PubChem BioAssay data set” (2004)
Calls of active or inactive are those of the source.

How the values were obtained:
[1] = molecular target: T1, E3 ubiquitin-protein ligase XIAP (Homo sapiens, UniProt P98170); assay: Counter Screen using XIAP-Bir3 for Chemical Antagonists of Bir1/2 domains of IAP-family anti-apoptotic proteins. [Related pubchem assays (depositor defined):AID1018, AID1449, AID1514, AID1638, AID1749, AID1750, AID488957, AID488963]
[2] = molecular target: T1, E3 ubiquitin-protein ligase XIAP; assay: small molecules displacing peptide from XIAP – biochemical, IAP family, fluorescence polarization (AID 1018); type: functional
Troponin, cardiac muscle = Troponin, cardiac muscle (Homo sapiens, UniProt P19429+P45379+P63316); assay: Fluorescence-based biochemical high throughput dose response assay for activators of the calcium sensitivity of cardiac Regulated Thin Filaments (RTF). [Related pubchem assays (depositor defined):AID493008, AID493018, AID504382, AID504383]; type: protein-complex assay
Hexokinase = molecular target: T2, Hexokinase (Trypanosoma brucei, UniProt Q38C41); assay: Confirmation assay for inhibitors of Trypanosoma brucei hexokinase 1-Analogue-first series. [Related pubchem assays (depositor defined):AID1430, AID1632, AID2516, AID2560, AID2579, AID2600, AID449725, AID492951]; type: functional
T2 sequence (Q38C41 whole entry): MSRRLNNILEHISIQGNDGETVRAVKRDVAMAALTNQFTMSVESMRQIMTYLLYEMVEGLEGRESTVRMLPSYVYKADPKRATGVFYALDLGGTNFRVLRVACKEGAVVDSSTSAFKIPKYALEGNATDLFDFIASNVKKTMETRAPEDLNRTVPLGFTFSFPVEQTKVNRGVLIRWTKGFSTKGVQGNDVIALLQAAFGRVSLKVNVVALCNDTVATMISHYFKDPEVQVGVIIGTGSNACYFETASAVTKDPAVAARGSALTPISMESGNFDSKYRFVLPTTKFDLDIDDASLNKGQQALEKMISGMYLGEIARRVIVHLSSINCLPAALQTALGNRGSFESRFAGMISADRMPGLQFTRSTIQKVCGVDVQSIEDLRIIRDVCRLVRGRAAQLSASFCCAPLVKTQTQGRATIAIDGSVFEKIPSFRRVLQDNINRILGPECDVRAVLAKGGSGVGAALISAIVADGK

[3] = molecular target: Glucose-6-phosphate 1-dehydrogenase (Homo sapiens, UniProt P11413); assay: inhibition of Homo sapiens G6PD, dose series – biochemical, fluorescence, selectivity assay for P. falciparum G6PD inhibitor project, dose response (AID 504792); type: functional
Chain of Glucose-6-phosphate 1-dehydrogenase (P11413 whole entry): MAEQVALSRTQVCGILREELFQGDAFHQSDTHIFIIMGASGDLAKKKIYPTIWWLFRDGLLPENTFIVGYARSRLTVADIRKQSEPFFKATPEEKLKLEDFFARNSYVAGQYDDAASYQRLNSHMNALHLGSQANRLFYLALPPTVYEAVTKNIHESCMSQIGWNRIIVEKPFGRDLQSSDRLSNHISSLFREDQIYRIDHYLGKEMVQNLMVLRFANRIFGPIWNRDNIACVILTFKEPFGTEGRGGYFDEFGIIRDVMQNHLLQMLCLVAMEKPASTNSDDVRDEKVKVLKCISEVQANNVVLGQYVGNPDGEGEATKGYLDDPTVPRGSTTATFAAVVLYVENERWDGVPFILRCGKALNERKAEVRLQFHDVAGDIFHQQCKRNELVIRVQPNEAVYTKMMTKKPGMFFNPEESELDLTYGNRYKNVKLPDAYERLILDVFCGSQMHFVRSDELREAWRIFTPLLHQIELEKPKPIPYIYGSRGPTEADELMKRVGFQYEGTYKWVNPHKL

[4] = viability loss in HeLa cells – cytotoxicity control for MgcRacGAP inhibitor project, dose response (AID 624300); type: functional
[5] = molecular target: T3, Rac GTPase-activating protein 1 (Homo sapiens, UniProt Q9H0H5); assay: blockers of MgcRacGAP-driven Rac1 GTP hydrolysis – biochemical, ADP Hunter fluorescence, primary and confirmatory, confirmation (AID 624330); type: functional
T3 sequence (Q9H0H5 whole entry): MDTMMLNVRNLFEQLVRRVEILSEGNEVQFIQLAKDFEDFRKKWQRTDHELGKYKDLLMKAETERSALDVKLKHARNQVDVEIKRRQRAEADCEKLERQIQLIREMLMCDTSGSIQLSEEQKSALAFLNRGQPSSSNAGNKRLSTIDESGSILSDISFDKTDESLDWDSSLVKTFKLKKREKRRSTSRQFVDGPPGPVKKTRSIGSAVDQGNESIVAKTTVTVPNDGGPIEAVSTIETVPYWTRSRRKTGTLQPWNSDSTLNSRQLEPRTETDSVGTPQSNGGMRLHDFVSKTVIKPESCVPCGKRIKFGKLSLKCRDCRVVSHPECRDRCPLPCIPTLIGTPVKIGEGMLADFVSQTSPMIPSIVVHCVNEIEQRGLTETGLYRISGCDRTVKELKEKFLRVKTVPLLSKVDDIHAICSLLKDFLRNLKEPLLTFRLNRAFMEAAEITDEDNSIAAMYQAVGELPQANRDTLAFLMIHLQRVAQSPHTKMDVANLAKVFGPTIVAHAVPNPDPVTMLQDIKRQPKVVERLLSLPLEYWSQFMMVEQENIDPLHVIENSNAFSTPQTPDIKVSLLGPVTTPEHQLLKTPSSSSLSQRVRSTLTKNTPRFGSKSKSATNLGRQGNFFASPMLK

[6] = molecular target: Melanin-concentrating hormone receptor 1 (Homo sapiens, UniProt Q99705); assay: Late-stage fluorescence-based counterscreen for antagonists of the G-protein coupled receptor 7 (GPR7): cell-based dose response assay to identify antagonists of the melanin-concentrating hormone receptor 1 (MCHR1). [Related pubchem assays (depositor defined):AID1861, AID1880, AID1952, AID2148, AID2251, AID2257, AID485339]; type: functional;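 also: stimulated with 30 nM MCH peptide agonist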
Chain of Melanin-concentrating hormone receptor 1 (Q99705 whole entry): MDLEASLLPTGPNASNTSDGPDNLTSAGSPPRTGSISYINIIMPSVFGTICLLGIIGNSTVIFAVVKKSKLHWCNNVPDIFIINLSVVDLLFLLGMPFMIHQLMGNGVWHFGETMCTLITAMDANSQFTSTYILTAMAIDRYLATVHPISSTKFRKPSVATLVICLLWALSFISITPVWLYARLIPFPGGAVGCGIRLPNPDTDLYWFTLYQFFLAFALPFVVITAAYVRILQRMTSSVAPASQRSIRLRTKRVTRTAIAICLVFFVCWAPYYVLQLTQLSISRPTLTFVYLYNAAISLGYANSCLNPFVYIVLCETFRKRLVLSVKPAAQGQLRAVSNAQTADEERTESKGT

Leucine aminopeptidase = molecular target: T4, Leucine aminopeptidase (Plasmodium falciparum 3D7, UniProt Q8IL11); assay: P. falciparum M17LAP inhibitors, primary screen, biochemical, fluorogenic H-Leu-NHMec substrate, 1536-well (AID 1619); type: functional
T4 sequence (Q8IL11 whole entry): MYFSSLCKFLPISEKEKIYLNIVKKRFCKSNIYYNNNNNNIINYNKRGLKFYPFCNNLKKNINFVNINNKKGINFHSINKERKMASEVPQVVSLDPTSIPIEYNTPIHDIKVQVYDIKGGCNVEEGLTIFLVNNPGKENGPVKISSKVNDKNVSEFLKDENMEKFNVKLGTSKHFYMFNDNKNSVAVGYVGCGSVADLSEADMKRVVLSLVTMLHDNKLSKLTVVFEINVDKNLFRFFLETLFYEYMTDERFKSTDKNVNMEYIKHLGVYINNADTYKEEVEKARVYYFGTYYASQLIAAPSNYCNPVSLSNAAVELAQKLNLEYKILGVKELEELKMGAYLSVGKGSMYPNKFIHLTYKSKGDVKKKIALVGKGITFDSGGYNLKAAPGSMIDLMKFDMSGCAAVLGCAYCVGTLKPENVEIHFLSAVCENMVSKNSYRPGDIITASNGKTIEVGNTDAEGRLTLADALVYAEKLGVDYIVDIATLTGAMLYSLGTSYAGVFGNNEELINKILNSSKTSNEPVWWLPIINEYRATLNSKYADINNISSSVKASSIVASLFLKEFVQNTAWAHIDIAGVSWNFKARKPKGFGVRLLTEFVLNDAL

SUMO-activating enzyme [7] = molecular target: T5, SUMO-activating enzyme (Homo sapiens, UniProt Q9UBT2); assay: blockers of UBC9-mediated SUMO conjugation – biochemical, AlphaScreen, SUMOylation inhibitor project, confirmation (AID 2018); type: functional
T5 sequence (Q9UBE0 whole entry, the tested form may be a part): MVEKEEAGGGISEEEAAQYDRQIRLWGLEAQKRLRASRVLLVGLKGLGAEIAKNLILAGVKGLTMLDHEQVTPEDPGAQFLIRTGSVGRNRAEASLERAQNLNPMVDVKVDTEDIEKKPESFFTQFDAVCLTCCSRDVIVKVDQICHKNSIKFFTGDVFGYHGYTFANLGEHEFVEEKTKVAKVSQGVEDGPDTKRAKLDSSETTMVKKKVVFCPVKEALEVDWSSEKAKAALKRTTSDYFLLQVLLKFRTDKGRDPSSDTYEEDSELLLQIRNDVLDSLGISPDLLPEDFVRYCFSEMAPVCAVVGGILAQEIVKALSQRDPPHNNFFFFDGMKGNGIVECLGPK
T5 sequence (Q9UBT2 whole entry, the tested form may be a part): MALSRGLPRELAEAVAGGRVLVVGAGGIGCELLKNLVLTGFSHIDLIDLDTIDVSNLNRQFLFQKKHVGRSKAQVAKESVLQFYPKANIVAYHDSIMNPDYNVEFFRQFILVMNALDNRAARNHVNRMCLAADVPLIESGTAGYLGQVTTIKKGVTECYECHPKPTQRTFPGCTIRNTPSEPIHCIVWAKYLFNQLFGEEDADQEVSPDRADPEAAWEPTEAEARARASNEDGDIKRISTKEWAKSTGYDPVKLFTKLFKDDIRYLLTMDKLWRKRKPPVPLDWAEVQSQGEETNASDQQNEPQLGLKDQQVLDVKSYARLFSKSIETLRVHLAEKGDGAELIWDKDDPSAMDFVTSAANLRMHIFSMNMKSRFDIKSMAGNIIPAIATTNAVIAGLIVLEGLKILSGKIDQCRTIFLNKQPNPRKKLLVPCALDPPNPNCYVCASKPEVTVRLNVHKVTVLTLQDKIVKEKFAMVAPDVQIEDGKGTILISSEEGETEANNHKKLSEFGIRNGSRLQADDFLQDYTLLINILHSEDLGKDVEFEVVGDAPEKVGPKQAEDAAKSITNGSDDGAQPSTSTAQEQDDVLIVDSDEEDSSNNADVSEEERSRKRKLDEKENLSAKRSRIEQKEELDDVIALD

[8] = molecular target: T6, RNA-binding protein pos-1 (Caenorhabditis elegans, UniProt G5EF15); assay: disruptors of C. elegans POS-1 RNA interaction – biochemical, fluorescence polarization, dose response (AID 1964);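 also: purified POS-1 fused to maltose binding protein made in E. coli; potency of compounds blocking POS-1 binding to fluorescent RNA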
T6 sequence (G5EF15 whole entry): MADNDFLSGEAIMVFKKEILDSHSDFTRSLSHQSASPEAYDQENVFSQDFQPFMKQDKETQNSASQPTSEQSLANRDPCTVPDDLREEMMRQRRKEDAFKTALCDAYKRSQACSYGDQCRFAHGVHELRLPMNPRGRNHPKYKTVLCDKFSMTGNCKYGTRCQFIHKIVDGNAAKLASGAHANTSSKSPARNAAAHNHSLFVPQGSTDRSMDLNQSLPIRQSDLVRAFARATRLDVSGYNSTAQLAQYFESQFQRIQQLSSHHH

SUMO-activating enzyme [9] = molecular target: T5, SUMO-activating enzyme; assay: blockers of SAE1/SAE2–UBC9 SUMO transfer – biochemical, HTRF, uHTS, primary screen (AID 2006); type: protein-complex assay
[10] = molecular target: Eukaryotic translation initiation factor 4E (Mus musculus, UniProt P63073); assay: blockers of eIF4G binding by eIF4E – biochemical, TR-FRET, dose response (AID 855); type: functional;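 also: potency for disrupting eIF4E binding to eIF4GI seen as loss of FRET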
Chain of Eukaryotic translation initiation factor 4E (P63073 whole entry): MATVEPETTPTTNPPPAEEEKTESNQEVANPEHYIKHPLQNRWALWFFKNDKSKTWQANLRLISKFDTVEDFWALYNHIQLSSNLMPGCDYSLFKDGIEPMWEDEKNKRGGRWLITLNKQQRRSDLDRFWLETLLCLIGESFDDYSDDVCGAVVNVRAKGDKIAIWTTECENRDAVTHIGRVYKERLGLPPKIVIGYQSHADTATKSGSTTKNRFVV

Caspase-6 = molecular target: T7, Caspase-6 (Homo sapiens, UniProt P55212); assay: inhibition of CASP6 peptide cleavage – biochemical, VEID-R110 fluorescence, cherry-pick, dose response (AID 720632)
T7 sequence (P55212 whole entry): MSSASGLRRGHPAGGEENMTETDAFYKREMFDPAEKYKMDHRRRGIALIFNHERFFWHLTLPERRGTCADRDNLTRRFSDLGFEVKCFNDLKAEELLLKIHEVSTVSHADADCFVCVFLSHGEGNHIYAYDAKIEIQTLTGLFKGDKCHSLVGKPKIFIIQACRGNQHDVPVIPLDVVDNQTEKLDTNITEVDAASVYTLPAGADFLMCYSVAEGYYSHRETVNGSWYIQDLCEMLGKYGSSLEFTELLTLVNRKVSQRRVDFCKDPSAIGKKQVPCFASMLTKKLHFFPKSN

[11] = molecular target: T8, Zinc finger protein mex-5 (Caenorhabditis elegans, UniProt Q9XUB2); assay: potency of MEX-5 RNA-binding blockers – biochemical, C. elegans, fluorescence polarization, dose response (AID 1960)
T8 sequence (Q9XUB2 whole entry): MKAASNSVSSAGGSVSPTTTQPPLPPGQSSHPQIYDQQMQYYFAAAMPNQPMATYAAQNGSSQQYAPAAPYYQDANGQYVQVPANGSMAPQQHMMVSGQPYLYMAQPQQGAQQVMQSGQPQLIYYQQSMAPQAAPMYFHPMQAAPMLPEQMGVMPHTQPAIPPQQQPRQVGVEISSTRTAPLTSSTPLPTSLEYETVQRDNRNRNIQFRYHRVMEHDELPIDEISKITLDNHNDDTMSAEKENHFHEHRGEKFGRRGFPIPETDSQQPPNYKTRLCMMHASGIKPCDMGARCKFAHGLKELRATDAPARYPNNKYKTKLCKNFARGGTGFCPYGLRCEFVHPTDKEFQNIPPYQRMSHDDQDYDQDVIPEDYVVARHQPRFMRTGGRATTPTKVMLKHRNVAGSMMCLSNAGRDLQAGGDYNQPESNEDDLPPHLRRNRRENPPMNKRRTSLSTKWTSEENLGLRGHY

[12] = molecular target: DNA dC->dU-editing enzyme APOBEC-3A (Homo sapiens, UniProt P31941); assay: A3A deaminase inhibition for selectivity – biochemical, dose response (AID 504722); type: functional
Chain of DNA dC->dU-editing enzyme APOBEC-3A (P31941 whole entry): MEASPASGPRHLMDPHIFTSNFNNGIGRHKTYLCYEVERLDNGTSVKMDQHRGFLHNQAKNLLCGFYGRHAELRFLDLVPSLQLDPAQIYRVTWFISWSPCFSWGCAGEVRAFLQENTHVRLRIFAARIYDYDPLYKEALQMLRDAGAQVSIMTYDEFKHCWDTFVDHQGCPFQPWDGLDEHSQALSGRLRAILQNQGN

[13] = molecular target: DNA dC->dU-editing enzyme APOBEC-3G (Homo sapiens, UniProt Q9HC16); assay: Dose Response confirmation of small molecule APOBEC3G DNA Deaminase Inhibitors via a fluorescence-based single-stranded DNA deaminase assay. [Related pubchem assays (depositor defined):AID493012, AID493028]; type: functional
Chain of DNA dC->dU-editing enzyme APOBEC-3G (Q9HC16 whole entry): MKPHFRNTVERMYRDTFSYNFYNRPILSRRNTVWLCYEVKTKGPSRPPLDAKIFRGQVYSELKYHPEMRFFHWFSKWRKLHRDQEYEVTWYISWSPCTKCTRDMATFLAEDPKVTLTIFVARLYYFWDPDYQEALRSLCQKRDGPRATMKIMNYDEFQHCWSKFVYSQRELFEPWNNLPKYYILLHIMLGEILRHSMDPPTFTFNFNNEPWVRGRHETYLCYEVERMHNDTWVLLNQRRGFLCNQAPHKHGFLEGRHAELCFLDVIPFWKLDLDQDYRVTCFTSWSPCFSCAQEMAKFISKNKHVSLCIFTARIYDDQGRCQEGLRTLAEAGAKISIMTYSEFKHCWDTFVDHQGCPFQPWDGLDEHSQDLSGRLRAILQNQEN

T1 sequence (P98170 whole entry): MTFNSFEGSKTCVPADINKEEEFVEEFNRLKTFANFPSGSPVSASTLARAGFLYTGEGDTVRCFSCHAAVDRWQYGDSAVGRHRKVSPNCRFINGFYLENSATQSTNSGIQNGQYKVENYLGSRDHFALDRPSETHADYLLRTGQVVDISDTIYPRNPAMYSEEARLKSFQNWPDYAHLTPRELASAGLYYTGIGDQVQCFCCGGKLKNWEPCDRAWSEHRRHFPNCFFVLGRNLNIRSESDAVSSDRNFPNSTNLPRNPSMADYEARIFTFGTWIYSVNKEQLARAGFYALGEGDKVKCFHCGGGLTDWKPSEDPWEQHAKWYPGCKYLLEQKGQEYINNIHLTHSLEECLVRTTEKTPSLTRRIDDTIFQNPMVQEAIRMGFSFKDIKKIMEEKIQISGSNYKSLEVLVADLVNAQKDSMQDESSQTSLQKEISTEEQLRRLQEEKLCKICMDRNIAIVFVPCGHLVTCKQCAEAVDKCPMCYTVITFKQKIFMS

Which IC50 [1] does the source give for `O=C(O)CCN1CCc2ccccc21` here?
Its IC50 is > 100 µM (inactive).

What about the IC50 [2] of the same molecule?
The IC50 was > 100 µM (not active).

Which EC50 (Troponin, cardiac muscle) does the source give for `Cc1cc(C)c2nc(NC(=O)C3CCCO3)sc2c1` (stereo not drawn) here?
Its EC50 is > 71.5 µM (inactive).

With `O=C(Nc1cc(Cl)ccc1C(=O)O)c1ccc(-c2ccccc2)cc1` as the molecule, how does the IC50 (Hexokinase) read?
The IC50 was 22.3 µM (active).

With `Cc1ccc(-n2sc3cc(F)ccc3c2=O)c(C)c1` as the molecule, how does the IC50 [3] read?
The IC50 was 9.17 µM (active).

What about the CC50 [4] of the same molecule?
The CC50 was 72.5 µM (active).

And the IC50 (Hexokinase)?
The IC50 was 4.77 µM (active).

And the IC50 [5]?
The IC50 was 35.8 µM (active).

For `O=C(Cn1sc2ccccc2c1=O)Nc1ccc(I)cc1`, which IC50 (Hexokinase) is on record?
The IC50 was 14.8 µM (active).

Which IC50 [6] does the source give for `COc1ccc(Oc2c(-c3ccco3)cnn(-c3ccc(C)cc3)c2=O)cc1` here?
Its IC50 is 13.5 µM (inactive).

Which IC50 (Leucine aminopeptidase) does the source give for `Cc1cc(/C=N/Nc2ccc([N+](=O)[O-])cn2)c(C)n1-c1ccc(C(=O)O)cc1` here?
The IC50 was 12.7 µM (active).

And the IC50 (SUMO-activating enzyme [7])?
Its IC50 is 6.16 µM (active).

What about the EC50 [8] of the same molecule?
Its EC50 is > 300 µM (not active).

And the IC50 (SUMO-activating enzyme [9])?
Its IC50 is 29 µM (active).

And the IC50 [10]?
The IC50 was 50 µM (inactive).

And the AC50 (Caspase-6)?
The AC50 was 5.03 µM (active).

And the EC50 [11]?
Its EC50 is 111 µM (active).

Which IC50 [12] does the source give for `CC(/C=N/n1c(S)nnc1-c1cccnc1)=C\c1ccco1` here?
Its IC50 is > 100 µM (inactive).

What about the IC50 [13] of the same molecule?
Its IC50 is 1.93 µM (active).

Which results are given for `Sc1nnc(-c2ccncc2)n1/N=C/c1ccccc1`?
IC50 [5]: 51.9 µM (active); IC50 [12]: > 100 µM (inactive); IC50 [13]: 2.52 µM (active)

Which IC50 (Hexokinase) does the source give for `O=c1c(O)c(-c2ccc(O)c(O)c2)oc2cc(O)cc(O)c12` [QUERCETIN] here?
The IC50 was 22.4 µM (active).
